The record followed here is ChEMBL document CHEMBL5506055, “Hit-to-Lead Optimization of the Natural Product Oridonin as Novel NLRP3 Inflammasome Inhibitors with Potent Anti-Inflammation Activity” (J Med Chem, 2024).

Molecules are shown by their SMILES. pIC50: −log10 of the molar value. Active and inactive are the calls of the source. No cut-off for these calls is given here. Bounds are passed on as bounds.

One series deals with hERG (KCNH2) (Homo sapiens, UniProt Q12809). The experiment in a line: Inhibition of human ERG expressed in CHO cells at 40 uM relative to control. The conditions noted are these: CHO cells that express human ERG. It is filed as toxicity, cell-based.
For series [1], the target named is T1, NACHT, LRR and PYD domains-containing protein 3 (Mus musculus, UniProt Q8R4B8). The experiment in a line: Inhibition of NLRP3 inflammasome activation in LPS/ATP-induced C57BL/6 mouse BMDMs assessed as reduction in IL-1beta secretion preincubated with LPS for 4 hrs followed by compound addition for 30 mins and further stimulated with ATP for 30 mins by ELISA. It is filed as cell-based, BMDM.

The target in series [2] is NACHT, LRR and PYD domains-containing protein 3 (Mus musculus) (UniProt Q8R4B8). Particulars: BMDM, dose 10.0 nM, time 1.0 hrs.
In series [3] the target is T1, NACHT, LRR and PYD domains-containing protein 3. The experiment in a line: Inhibition of NLRP3 inflammasome activation in mouse J774.A1 cells. Type of series: cell-based.
The next series concerns Mus musculus. Put plainly: Antiinflammatory activity in MSU-induced C57BL/6 mouse model of arthritis assessed as reduction in inflammatory cell infiltration at 12.5 mg/kg, iv measured after 24 hrs. Type of series: functional, organism-based.
Series [4] has as its target NACHT, LRR and PYD domains-containing protein 3 (Mus musculus) (UniProt Q8R4B8). The experiment in a line: Inhibition of NLRP3 inflammasome activation in LPS/ATP-induced C57BL/6 mouse BMDMs assessed as reduction in IL-1beta secretion at 200 nM preincubated with LPS for 4 hrs followed by compound addition for 30 mins and further stimulated with ATP for 30 mins by ELISA relative to control. Type of series: cell-based. The conditions noted are these: BMDM, time 1.0 hrs. On the technique in general: ELISA stands for enzyme-linked immunosorbent assay.

For series [5] the target is unchanged. Put plainly: Inhibition of NLRP3 inflammasome activation in LPS/ATP-induced C57BL/6 mouse BMDMs assessed as reduction in IL-1beta secretion at 500 nM preincubated with LPS for 4 hrs followed by compound addition for 30 mins and further stimulated with ATP for 30 mins by ELISA relative to control. It is filed as cell-based. The conditions noted are these: BMDM, time 1.0 hrs.

Series [6] can be described thus: Selectivity index, ratio of CC50 for cytotoxicity against C57BL/6 mouse BMDMs to IC50 for inhibition of NLRP3 inflammasome activation in C57BL/6 mouse BMDMs. Type of series: toxicity. The conditions noted are these: bone marrow-derived macrophages (BMDMs), read-out: Ratio CC50/IC50.
For series [7], the target named is NACHT, LRR and PYD domains-containing protein 3 (Mus musculus) (UniProt Q8R4B8). The experiment in a line: Inhibition of NLRP3 inflammasome activation in LPS/ATP-induced C57BL/6 mouse BMDMs assessed as reduction in IL-1beta secretion at 100 nM preincubated with LPS for 4 hrs followed by compound addition for 30 mins and further stimulated with ATP for 30 mins by ELISA relative to control. It is filed as cell-based. The conditions noted are these: BMDM, time 1.0 hrs.

Series [8] is described as follows: AUC in ICR mouse at 10 mg/kg, po measured upto 24 hrs by LC-MS/MS method. It is filed as ADME, organism-based. Particulars: ICR, in vivo.
Series [9] can be described thus: Clearance in ICR mouse at 1 mg/kg, iv measured upto 24 hrs by LC-MS/MS method. Type of series: ADME, organism-based. Particulars: in vivo.
Series [10] can be described thus: Half-life in ICR mouse at 10 mg/kg, po measured upto 24 hrs by LC-MS/MS method. It is filed as ADME, organism-based. The conditions noted are these: in vivo.
Series [11] can be described thus: Stability in human liver microsomes assessed as half life preincubated for 5 mins with NADPH followed by compound addition and measured upto 120 mins by LC-MS/MS analysis. Type of series: ADME, Microsome. Particulars: time < 125 min. On the technique in general: Liver microsomes are vesicles of endoplasmic reticulum, rich in cytochrome P450 enzymes.
Series [12] can be described thus: Stability in rat liver microsomes assessed as half life preincubated for 5 mins with NADPH followed by compound addition and measured upto 120 mins by LC-MS/MS analysis. The conditions noted are these: time < 125 min. It is filed as ADME, Microsome.
The target of series [13] is Voltage-gated inwardly rectifying potassium channel KCNH2 (Homo sapiens, UniProt Q12809). Put plainly: Inhibition of human ERG expressed in CHO cells. Type of series: toxicity, cell-based.
Series [14] in a line: Cmax in ICR mouse at 10 mg/kg, po measured upto 24 hrs by LC-MS/MS method. Type of series: ADME, organism-based. Particulars: in vivo.
Series [15] in a line: Stability in mouse plasma assessed as half life measured upto 8 hrs. It is filed as ADME, cell-free.
Series [16] is described as follows: Oral bioavailability in ICR mouse at 10 mg/kg measured upto 24 hrs by LC-MS/MS method. It is filed as ADME, organism-based. Particulars: ICR, in vivo.
Series [17] can be described thus: Stability in human plasma assessed as half life measured upto 8 hrs. Type of series: ADME, cell-free.
Series [18] can be described thus: Stability in mouse liver microsomes assessed as half life preincubated for 5 mins with NADPH followed by compound addition and measured upto 120 mins by LC-MS/MS analysis. It is filed as ADME, Microsome. Particulars: time < 125 min.
Series [19] in a line: AUC in ICR mouse at 1 mg/kg, iv measured upto 24 hrs by LC-MS/MS method. The conditions noted are these: ICR, in vivo. It is filed as ADME, organism-based.
A short description of series [20]: Half-life in ICR mouse at 1 mg/kg, iv measured upto 24 hrs by LC-MS/MS method. It is filed as ADME, organism-based. Particulars: in vivo.
A short description of series [21]: Stability in rat plasma assessed as half life measured upto 8 hrs. Type of series: ADME, cell-free.

Sequence of NACHT, LRR and PYD domains-containing protein 3 (Mus musculus) (Q8R4B8 whole entry, the tested form may be a part): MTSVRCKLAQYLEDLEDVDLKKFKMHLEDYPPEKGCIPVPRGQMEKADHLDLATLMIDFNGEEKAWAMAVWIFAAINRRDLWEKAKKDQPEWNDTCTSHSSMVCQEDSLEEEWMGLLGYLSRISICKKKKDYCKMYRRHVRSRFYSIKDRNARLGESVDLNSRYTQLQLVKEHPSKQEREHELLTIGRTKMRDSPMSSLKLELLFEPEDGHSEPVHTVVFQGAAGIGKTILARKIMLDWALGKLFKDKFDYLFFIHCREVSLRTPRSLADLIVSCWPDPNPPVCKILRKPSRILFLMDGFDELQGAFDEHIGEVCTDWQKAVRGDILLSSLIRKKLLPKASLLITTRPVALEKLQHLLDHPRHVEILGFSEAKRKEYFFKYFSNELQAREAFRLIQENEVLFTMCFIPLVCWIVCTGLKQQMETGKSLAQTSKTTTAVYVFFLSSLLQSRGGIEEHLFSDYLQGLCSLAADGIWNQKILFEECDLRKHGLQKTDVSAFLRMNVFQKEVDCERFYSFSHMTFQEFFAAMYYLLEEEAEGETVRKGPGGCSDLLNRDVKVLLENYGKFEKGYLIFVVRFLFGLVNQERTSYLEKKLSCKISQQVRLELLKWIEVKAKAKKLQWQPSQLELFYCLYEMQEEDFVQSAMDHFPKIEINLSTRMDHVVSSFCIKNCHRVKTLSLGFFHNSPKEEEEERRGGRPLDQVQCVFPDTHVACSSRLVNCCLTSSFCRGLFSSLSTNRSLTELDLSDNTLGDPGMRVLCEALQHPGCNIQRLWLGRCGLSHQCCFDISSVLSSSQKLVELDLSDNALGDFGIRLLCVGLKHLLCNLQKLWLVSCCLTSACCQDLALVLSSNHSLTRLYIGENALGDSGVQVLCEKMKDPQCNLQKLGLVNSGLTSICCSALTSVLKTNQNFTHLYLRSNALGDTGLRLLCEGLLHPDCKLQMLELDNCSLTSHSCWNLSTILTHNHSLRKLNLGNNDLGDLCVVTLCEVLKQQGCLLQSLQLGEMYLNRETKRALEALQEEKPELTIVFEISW
T1 sequence (Q8R4B8 whole entry, the tested form may be a part): as above
Sequence of hERG (KCNH2) (Q12809 whole entry, the tested form may be a part): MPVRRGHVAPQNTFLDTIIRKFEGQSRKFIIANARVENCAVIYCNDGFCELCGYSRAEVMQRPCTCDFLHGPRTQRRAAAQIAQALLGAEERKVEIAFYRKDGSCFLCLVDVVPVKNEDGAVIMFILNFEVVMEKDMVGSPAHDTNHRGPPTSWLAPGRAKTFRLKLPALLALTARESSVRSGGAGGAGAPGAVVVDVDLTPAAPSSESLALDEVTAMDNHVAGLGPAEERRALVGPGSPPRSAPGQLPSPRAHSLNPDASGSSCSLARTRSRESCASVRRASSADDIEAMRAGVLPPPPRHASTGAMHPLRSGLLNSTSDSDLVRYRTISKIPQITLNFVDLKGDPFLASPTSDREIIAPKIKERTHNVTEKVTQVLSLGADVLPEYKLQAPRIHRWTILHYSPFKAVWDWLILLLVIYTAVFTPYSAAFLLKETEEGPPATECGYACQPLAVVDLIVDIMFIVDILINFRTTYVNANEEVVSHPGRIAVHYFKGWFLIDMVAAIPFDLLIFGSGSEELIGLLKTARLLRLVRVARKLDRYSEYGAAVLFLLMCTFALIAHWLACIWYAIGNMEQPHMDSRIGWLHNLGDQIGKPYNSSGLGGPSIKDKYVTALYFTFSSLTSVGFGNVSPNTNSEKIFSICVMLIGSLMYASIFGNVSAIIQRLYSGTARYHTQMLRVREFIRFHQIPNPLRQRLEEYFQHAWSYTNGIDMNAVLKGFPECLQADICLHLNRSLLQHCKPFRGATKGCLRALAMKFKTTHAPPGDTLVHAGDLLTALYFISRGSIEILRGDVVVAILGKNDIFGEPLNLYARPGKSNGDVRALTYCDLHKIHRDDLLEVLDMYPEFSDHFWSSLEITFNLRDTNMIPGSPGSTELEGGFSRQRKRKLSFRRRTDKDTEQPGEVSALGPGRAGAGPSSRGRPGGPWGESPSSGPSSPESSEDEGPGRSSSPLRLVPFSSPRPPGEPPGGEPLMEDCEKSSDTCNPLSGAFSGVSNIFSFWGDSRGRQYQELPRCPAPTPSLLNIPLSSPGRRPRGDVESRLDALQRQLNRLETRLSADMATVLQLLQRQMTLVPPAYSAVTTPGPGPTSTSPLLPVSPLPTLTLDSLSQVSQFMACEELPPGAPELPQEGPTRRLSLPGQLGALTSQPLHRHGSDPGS
Sequence of Voltage-gated inwardly rectifying potassium channel KCNH2 (Q12809 whole entry): as the sequence (Q12809 whole entry, the tested form may be a part) above

On hERG (KCNH2), `COc1cc(N)c(Cl)cc1C(=O)NC1CCN(CCCOc2ccc(F)cc2)CC1OC` (stereo not given) [CISAPRIDE] came in with an inhibition at 40 µM of 98.7%.
In the case of `CC(C)n1ccc(S(=O)(=O)NC(=O)Nc2c3c(cc4c2CCC4)CCC3)n1` [INZOMELID], the pIC50 in series [1] is 7.85. In [2], this molecule returned an inhibition of 42.7%.
Molecule `CS(=O)(=O)/C=C/C#N` gave a pIC50 in [3] of 7.00.
The molecule `CC(C)(O)c1coc(S(=O)(=O)NC(=O)Nc2c3c(cc4c2CCC4)CCC3)c1` registered an inhibition in series [2] of 80.5%. Besides, the outcome in the series with Mus musculus was Active.
For the molecule `C=C1C(=O)[C@]23[C@H](O)[C@H]1CC[C@H]2[C@]12C=CCC(C)(C)[C@H]1[C@H](O)[C@@]3(OCCC(=O)N1CCOCC1)OC2`, the inhibition in series [4] was found to be 83.9%; in series [5], 95.1%; in [7] it was 62.7%. Also, in series [1], the pIC50 was 7.14. In addition, the selectivity ratio in [6] came to 30.2.
Take `C=C1C(=O)[C@]23[C@H](O)[C@H]1CC[C@H]2[C@]12C=CCC(C)(C)[C@H]1[C@H](O)[C@@]3(OCc1cncs1)OC2`: the AUC at 24 h amounted to 10.8 ng·h/mL in [8] and 337 ng·h/mL in series [19]. This molecule had a clearance in series [9] of 49.1 mL/min/kg. Besides, the inhibition is 93.9% in series [4], 97.3% in series [5] and 77.3% in series [7]. The half-life is 81.6 min in series [10]; 4.22 min in series [11]; 5.56 min in series [12]; 114 min in [15]; 359 min in [17]; 3.13 min in series [18]. Further, the figures for the half-life in series [20] and in [21] were 90 min and 104 min, respectively. The pIC50 was 7.30 in series [1] and under 4.40 in [13]. This molecule also registered a Cmax in [14] of 11.4 ng/mL. Besides, the bioavailability in [16] worked out at 0.64%. The molecule further returned an inhibition at 40 µM at hERG (KCNH2) of 43.3%.
In the case of `C=C1C(=O)[C@]23[C@H](O)[C@H]1CC[C@H]2[C@]12C=CCC(C)(C)[C@H]1[C@H](O)[C@@]3(OCCC(=O)NCC(C)C)OC2`, the inhibition in series [4] is 59.9%; in series [5], 79.1%; in series [7], 40.7%. The pIC50 in series [1] is 6.86.
In the same order, the values of `C=C1C(=O)[C@]23[C@H](O)[C@H]1CC[C@H]2[C@]12C=CCC(C)(C)[C@H]1[C@H](O)[C@@]3(OCCC(=O)NC1CCOCC1)OC2` are 36.4%, 66.2%, 18.5% and 6.53.
The corresponding values for `C=C1C(=O)[C@]23[C@H](O)[C@H]1CC[C@H]2[C@]12C=CCC(C)(C)[C@H]1[C@H](O)[C@@]3(OCCC(=O)N(CCC)CCC)OC2` are 67.4%, 71.6%, 25.4% and 6.75.
The corresponding values for `C=C1C(=O)[C@]23[C@H](O)[C@H]1CC[C@H]2[C@]12C=CCC(C)(C)[C@H]1[C@H](O)[C@@]3(OCCC(=O)N1CCCCC1)OC2` are 52.4%, 82.1%, 43.7% and 6.83.
Consider `C=C1C(=O)[C@]23[C@H](O)[C@H]1CC[C@H]2[C@]12C=CCC(C)(C)[C@H]1[C@H](O)[C@@]3(OCc1ccncc1)OC2`, for which the inhibition in [4] worked out at 56%; in series [5] it was 77.3%; in [7] it was 47.3%. Besides, the pIC50 in series [1] was 7.00.

The term inhibition denotes the percentage by which the read-out fell short of the control. Broadly, the pIC50 is −log10 of the IC50, conventionally taken in molar units. The term AUC denotes the area under the concentration-time curve, a measure of exposure. Low readings indicate less exposure, high ones more exposure. By clearance is commonly meant a measure of how efficiently the substance is removed, as volume per time. As usually defined, the half-life is the time in which the quantity being followed falls by half. A word on the Cmax: it is the maximum level reached in the sampled fluid or tissue. As a reminder, the bioavailability is dose-corrected exposure relative to a reference, in per cent. Read a low bioavailability as little systemic uptake.
